Source: PubChem BioAssay (NCI)
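Dose response: 5 concentrations. Exposure: 48 h. Format: 96-well plates. Endpoint: linear interpolation; highest concentration if not reached. Abbreviation: GI50, concentration required for 50% inhibition of growth. TGI: concentration producing complete growth inhibition.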

Legend:
Assay in all cases: DTP human tumour cell line panel, 48 h
SW-620 colon = system: SW-620 colon
BT-549 breast = system: BT-549 breast
U251 CNS = system: U251 CNS
T-47D breast = system: T-47D breast
SK-MEL-5 melanoma = system: SK-MEL-5 melanoma
UACC-257 melanoma = system: UACC-257 melanoma
HT29 colon = system: HT29 colon
786-0 renal = system: 786-0 renal
HOP-92 NSCLC = system: HOP-92 NSCLC
HCT-116 colon = system: HCT-116 colon

SMILES	GI50 (SW-620 colon) [µM]	TGI (SW-620 colon) [µM]	GI50 (BT-549 breast) [µM]	TGI (BT-549 breast) [µM]	GI50 (U251 CNS) [µM]	TGI (U251 CNS) [µM]	GI50 (T-47D breast) [µM]	TGI (T-47D breast) [µM]	GI50 (SK-MEL-5 melanoma) [µM]	TGI (SK-MEL-5 melanoma) [µM]	GI50 (UACC-257 melanoma) [µM]	TGI (UACC-257 melanoma) [µM]	GI50 (HT29 colon) [µM]	TGI (HT29 colon) [µM]	GI50 (786-0 renal) [µM]	TGI (786-0 renal) [µM]	GI50 (HOP-92 NSCLC) [µM]	TGI (HOP-92 NSCLC) [µM]	GI50 (HCT-116 colon) [µM]	TGI (HCT-116 colon) [µM]
COC(=O)c1cncc(/C=C/c2c(C)cc(O)cc2C)c1	8.63	> 25	> 20.1	> 25	> 16.7	> 25	11	> 22.2	6.78	> 16.9	14.6	> 25	> 15.4	> 25	9.42	> 25	4.97	> 22.1	14.2	> 25
COc1cc(/C=C/C(=O)c2cccc(-n3cc(-c4ccc(Cl)cc4)[nH]c3=O)c2)cc(OC)c1OC	1.75	3.17	12.3	79.9	2.12	4.62	6.65	51.5	8.7	23.7	17.4	90.9	2	3.71	2.14	5.39	> 100	> 100	1.39	2.68
CCC1(O)C(=O)OCc2c1cc1n(c2=O)Cc2cc3c(NC(=O)CN)cccc3nc2-1 (configuration not stated)	1.75	97.9	0.477	> 26.2	0.16	12.1	0.329		0.8	4.78	2.09	24.3		> 79.3	0.194	2.48	2.47	24.1	1.01	> 62.5
COc1cc2nc(-c3cc(F)ccc3O)nc(N[C@@H]3CNC[C@H]3C(C)(C)O)c2cc1OC	1.82	3.39	1.64	3.09	1.62	3.06	2.06	3.98	1.74	3.15	1.69	3.15	2	3.85	1.44	2.92	0.465	1.9	1.35	2.75
COC(=O)c1cc2c(cc1Cl)SC1=NN(C)C(N(C)C)N1S2(=O)=O (configuration not stated)	> 100	> 100	> 100	> 100	> 100	> 100	> 100	> 100	> 100	> 100	> 100	> 100	> 100	> 100	> 100	> 100	> 100	> 100	> 100	> 100
Cc1ccc(-c2nc([P+](c3ccccc3)(c3ccccc3)c3ccccc3)c(S(=O)(=O)c3ccc(C)cc3)o2)cc1	0.929	2.47	1.61	3.1	1.14	2.43	1.99	5.23	1.81	3.4	1.7	3.7	1.7	4.17	1.46	2.85	1.43	3.13	1.37	2.75
CCN(CC)CCCCCCNc1cc(OC)cc2cccnc12	1.79	3.71	17.4	33.6	2.38	5.2	17.5	38.6	2.53	6.34	20.2	36.8	1.82	3.43	2.11	4.32	12.5	27.6	1.93	3.55
C(=N/N(Cc1ccccc1)Cc1ccccc1)/c1ccccc1	> 100	> 100	> 100	> 100	> 100	> 100	72.4	> 100	55.4	> 100	96.9	> 100	24.7	> 100	> 100	> 100	53.3	> 100	26.1	> 100
COc1ccc(-c2nc(/C=C3\SC(=NCc4ccccc4)NC3=O)c3ccccn23)cc1	1.68	3.45	1.38	3.1	1.95		1.26	3.11	1.51	3.19	1.52	3.51	0.818	2.17	0.189	0.498	0.853	3.42	0.276	1.06
COC1=C(OC)C(=O)C(SC/C=C(\C)CCCC(C)CCCC(C)CCCC(C)C)=CC1=O (configuration not stated)	0.872	> 100	0.993	10.2	0.479	> 100	0.478	12.1	0.341	1.73	2.71	> 100	4.24	> 100	11.2	> 100	1.41	6.65	0.574	> 39.7
COC1C(N)C(OC2C(Oc3cccc4c(O)c5c(=O)oc6ccc(C)c7c(=O)oc(c34)c5c67)OC(C)C(O)C2(C)O)OC(C)C1O (configuration not stated)		1.61		0.214		0.789		1.43		0.265		0.277		0.436		0.36		0.0653		0.118
c1ccc2c(c1)Nc1ccncc1S2	21.2	92.6	29.6	> 100	27.2	> 100	22.4	96.3	25.8	> 100	31.1	> 100	18.4	> 100	28.8	> 100	8.07	71.6	20.5	> 100
O=C(CC1(O)C(=O)N(Cc2ccccc2)c2ccccc21)c1ccc(C(=O)NCC2CCC3(CC2)OOC2(CCCCC2)OO3)cc1 (configuration not stated)	3.56	> 41.5	1.88	4.03	0.774	2.17	1.41	4.04	1.66	3.14	5.01	22.9	1.72	3.82	0.18	0.345	0.184	0.434	2.29	6.13
C[N+](C)(C)CC1CCCC1=O (configuration not stated)		1.07		2.32		29.3		0.448		12.5		13.3		3.34		5.32		2.66		3.74
CC1=C(CC(=O)c2cccc([N+](=O)[O-])c2)C(=O)c2ccccc2C1=O	4.01	18.9	13.2	26.5	6.74	21.6	2.46	8.47	1.67	3.73	3.94	16.1	20.1	58.8	14.8	35.4	4.38	17.7	3.01	10.6
COC(=O)[C@H]1CCCN1C(=O)[C@H]1CCCN1C(=O)[C@@H](Cc1c[nH]c2ccccc12)NC(=S)Nc1cc(C(F)(F)F)cc(C(F)(F)F)c1	2	4.62	2.47	5.59	1.54	2.9	3.27	16.4	1.7	3.23	1.85	4.26	1.75	3.65	1.83	3.29	1.2	3.22	1.95	3.77
C#CCNC(=O)[C@H](CC)[C@H]1CC[C@H](C)[C@H]([C@@H](C)[C@H](O)[C@H](C)C(=O)[C@H](CC)C2O[C@]3(C=CC(=O)[C@]4(CC[C@@](C)([C@H]5CC[C@](O)(CC)[C@H](C)O5)O4)O3)[C@H](C)C[C@@H]2C)O1 (some centres not stated)	3.12	> 100	1.83	3.93	1.88	3.93	2.36	9	1.69	3.11	1.94	4.88	2.26	5.46	2.67	8.19	1.37	6.62	2.43	7.66
CN(CCNCc1ccccn1)CCNCc1ccccn1	3.18	11.3	1.98	4.63	3.48	12	3.43	28	1.75	3.16	1.97	3.85	2.79	7.86	1.8	3.57	2.02	5.27	2.18	4.7
